Target: T1, CDK2/cyclin E1 (Homo sapiens, UniProt P24941)
T1 construct: purchased Thermo Fisher Scientific (Life Technologies) SelectScreen
Test: SelectScreen LanthaScreen
Type: binding
Conditions: 1 µM
In short: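 NU5455 was profiled across the SelectScreen Broad panel of kinase activity and binding assays. Z'LYTE reactions such as CSF1R ran at apparent Km ATP, while the Adapta CAMK1 assay used ATP listed as 10. Values are given as percent.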

In the case of `CN(C(=O)CN1CCOCC1)c1ccc2sc3c(-c4cccc5c(=O)cc(N6CC7CCC(C6)O7)oc45)cccc3c2c1` [NU5455], the “% displacement” value is reported as 2.7%.
